Experimental data from the supplement of paper PMC6045584.
± gives the standard deviation of the averaged measurements.

Assays:
BMN-673 = compound: Cn1ncnc1[C@H]1c2n[nH]c(=O)c3cc(F)cc(c23)N[C@@H]1c1ccc(F)cc1 [BMN-673]; assay: surviving fraction relative to DMSO-only wells; higher = less growth inhibition; settings: exposure time: 5 days
Method in brief: (§1)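 Inhibitors were tested at 0.5, 1, 5, 10, 50, 100, 500 and 1000 nM, applied continuously for five days beginning 24 hours after log-phase tumour cells were seeded at 250–500 per well in 384-well plates. CellTiter-Glo luminescence served as the viability measure, expressed as surviving fraction against the median of DMSO-only wells. Each line, screened three times, was kept only with replicate Pearson r >0.7 and median Z' >0.3.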

BEZ-235 = compound: Cn1c(=O)n(-c2ccc(C(C)(C)C#N)cc2)c2c3cc(-c4cnc5ccccc5c4)ccc3ncc21 [BEZ-235]; assay: as above; settings: exposure time: 5 days
Method in brief: as §1

## CCK81 LARGE INTESTINE
BMN-673; 0.5 nM
  surviving fraction: 0.838 ± 0.087
BMN-673; 1 nM
  surviving fraction: 0.781 ± 0.094
BMN-673; 5 nM
  surviving fraction: 0.733 ± 0.091
BMN-673; 10 nM
  surviving fraction: 0.619 ± 0.092
BMN-673; 50 nM
  surviving fraction: 0.54 ± 0.034
BMN-673; 100 nM
  surviving fraction: 0.552 ± 0.03
BMN-673; 500 nM
  surviving fraction: 0.493 ± 0.079
BMN-673; 1000 nM
  surviving fraction: 0.406 ± 0.058

## G292 BONE
BEZ-235; 0.5 nM
  surviving fraction: 1.02 ± 0.026
BEZ-235; 1 nM
  surviving fraction: 0.987 ± 0.027
BEZ-235; 5 nM
  surviving fraction: 0.974 ± 0.025
BEZ-235; 10 nM
  surviving fraction: 0.982 ± 0.036
BEZ-235; 50 nM
  surviving fraction: 0.526 ± 0.032
BEZ-235; 100 nM
  surviving fraction: 0.357 ± 0.0091
BEZ-235; 500 nM
  surviving fraction: 0.202 ± 0.0096
BEZ-235; 1000 nM
  surviving fraction: 0.163 ± 0.0093
BMN-673; 0.5 nM
  surviving fraction: 1.02 ± 0.058
BMN-673; 1 nM
  surviving fraction: 0.933 ± 0.033
BMN-673; 5 nM
  surviving fraction: 0.923 ± 0.041
BMN-673; 10 nM
  surviving fraction: 0.846 ± 0.048
BMN-673; 50 nM
  surviving fraction: 0.732 ± 0.045
BMN-673; 100 nM
  surviving fraction: 0.698 ± 0.016
BMN-673; 500 nM
  surviving fraction: 0.54 ± 0.035
BMN-673; 1000 nM
  surviving fraction: 0.459 ± 0.015

## HCC38 BREAST
BEZ-235; 0.5 nM
  surviving fraction: 1.33 ± 0.21
BEZ-235; 1 nM
  surviving fraction: 1.21 ± 0.094
BEZ-235; 5 nM
  surviving fraction: 1.19 ± 0.037
BEZ-235; 10 nM
  surviving fraction: 1.2 ± 0.1
BEZ-235; 50 nM
  surviving fraction: 0.862 ± 0.013
BEZ-235; 100 nM
  surviving fraction: 0.666 ± 0.035
BEZ-235; 500 nM
  surviving fraction: 0.291 ± 0.041
BEZ-235; 1000 nM
  surviving fraction: 0.278 ± 0.054
BMN-673; 0.5 nM
  surviving fraction: 1.06 ± 0.11
BMN-673; 1 nM
  surviving fraction: 0.92 ± 0.2
BMN-673; 5 nM
  surviving fraction: 0.778 ± 0.14
BMN-673; 10 nM
  surviving fraction: 0.603 ± 0.11
BMN-673; 50 nM
  surviving fraction: 0.585 ± 0.084
BMN-673; 100 nM
  surviving fraction: 0.43 ± 0.065
BMN-673; 500 nM
  surviving fraction: 0.301 ± 0.046
BMN-673; 1000 nM
  surviving fraction: 0.253 ± 0.031

## HCC70 BREAST
BEZ-235; 0.5 nM
  surviving fraction: 1.1 ± 0.04
BEZ-235; 1 nM
  surviving fraction: 1.08 ± 0.075
BEZ-235; 5 nM
  surviving fraction: 1.02 ± 0.082
BEZ-235; 10 nM
  surviving fraction: 1.13 ± 0.1
BEZ-235; 50 nM
  surviving fraction: 0.836 ± 0.1
BEZ-235; 100 nM
  surviving fraction: 0.599 ± 0.068
BEZ-235; 500 nM
  surviving fraction: 0.347 ± 0.034
BEZ-235; 1000 nM
  surviving fraction: 0.296 ± 0.025
BMN-673; 0.5 nM
  surviving fraction: 1.05 ± 0.11
BMN-673; 1 nM
  surviving fraction: 1.05 ± 0.11
BMN-673; 5 nM
  surviving fraction: 1.12 ± 0.069
BMN-673; 10 nM
  surviving fraction: 0.977 ± 0.065
BMN-673; 50 nM
  surviving fraction: 0.789 ± 0.054
BMN-673; 100 nM
  surviving fraction: 0.657 ± 0.074
BMN-673; 500 nM
  surviving fraction: 0.411 ± 0.1
BMN-673; 1000 nM
  surviving fraction: 0.341 ± 0.022

## HMLE3 BREAST
BEZ-235; 0.5 nM
  surviving fraction: 1.03 ± 0.092
BEZ-235; 1 nM
  surviving fraction: 0.966 ± 0.069
BEZ-235; 5 nM
  surviving fraction: 0.961 ± 0.036
BEZ-235; 10 nM
  surviving fraction: 0.929 ± 0.047
BEZ-235; 50 nM
  surviving fraction: 0.582 ± 0.035
BEZ-235; 100 nM
  surviving fraction: 0.315 ± 0.011
BEZ-235; 500 nM
  surviving fraction: 0.111 ± 0.0049
BEZ-235; 1000 nM
  surviving fraction: 0.0777 ± 0.0078
BMN-673; 0.5 nM
  surviving fraction: 1.08 ± 0.048
BMN-673; 1 nM
  surviving fraction: 1.11 ± 0.053
BMN-673; 5 nM
  surviving fraction: 1 ± 0.2
BMN-673; 10 nM
  surviving fraction: 0.902 ± 0.1
BMN-673; 50 nM
  surviving fraction: 0.644 ± 0.035
BMN-673; 100 nM
  surviving fraction: 0.604 ± 0.03
BMN-673; 500 nM
  surviving fraction: 0.339 ± 0.056
BMN-673; 1000 nM
  surviving fraction: 0.277 ± 0.036

## HMT3552 BREAST
BEZ-235; 0.5 nM
  surviving fraction: 1.09
BEZ-235; 1 nM
  surviving fraction: 1.05
BEZ-235; 5 nM
  surviving fraction: 1.01
BEZ-235; 10 nM
  surviving fraction: 1.02
BEZ-235; 50 nM
  surviving fraction: 0.681
BEZ-235; 100 nM
  surviving fraction: 0.466
BEZ-235; 500 nM
  surviving fraction: 0.186
BEZ-235; 1000 nM
  surviving fraction: 0.191
BMN-673; 0.5 nM
  surviving fraction: 1.01 ± 0.064
BMN-673; 1 nM
  surviving fraction: 0.943 ± 0.036
BMN-673; 5 nM
  surviving fraction: 0.889 ± 0.047
BMN-673; 10 nM
  surviving fraction: 0.775 ± 0.073
BMN-673; 50 nM
  surviving fraction: 0.713 ± 0.063
BMN-673; 100 nM
  surviving fraction: 0.574 ± 0.01
BMN-673; 500 nM
  surviving fraction: 0.375 ± 0.026
BMN-673; 1000 nM
  surviving fraction: 0.264 ± 0.0075

## HS578T BREAST
BEZ-235; 0.5 nM
  surviving fraction: 1.13 ± 0.15
BEZ-235; 1 nM
  surviving fraction: 0.972 ± 0.15
BEZ-235; 5 nM
  surviving fraction: 0.997 ± 0.18
BEZ-235; 10 nM
  surviving fraction: 0.817 ± 0.092
BEZ-235; 50 nM
  surviving fraction: 0.46 ± 0.028
BEZ-235; 100 nM
  surviving fraction: 0.384 ± 0.026
BEZ-235; 500 nM
  surviving fraction: 0.263 ± 0.027
BEZ-235; 1000 nM
  surviving fraction: 0.257 ± 0.02
BMN-673; 0.5 nM
  surviving fraction: 1.02 ± 0.035
BMN-673; 1 nM
  surviving fraction: 1.14 ± 0.14
BMN-673; 5 nM
  surviving fraction: 1.05 ± 0.091
BMN-673; 10 nM
  surviving fraction: 0.958 ± 0.12
BMN-673; 50 nM
  surviving fraction: 0.902 ± 0.075
BMN-673; 100 nM
  surviving fraction: 0.841 ± 0.043
BMN-673; 500 nM
  surviving fraction: 0.669 ± 0.076
BMN-673; 1000 nM
  surviving fraction: 0.61 ± 0.087
